Values joined by “and” are separate entries in the source; they are usually repeats but may differ in a detail not shown here. Equal entries are not always repeated. Marks after values point to notes of the source that are not given here.
Tests used:
[1] = DPPH radical scavenging, absorbance at 517 nm; type: biochemical; conditions: DPPH 100µM, 25°C, 30 minutes
Description: After incubation of various concentrations of THP with 1,1-diphenyl-2-picrylhydrazyl (DPPH, 100µM) at room temperature (25°C) for 30 minutes, decrease in the absorbance for DPPH at 517 nm was measured to determine the dose-response curve of THP in scavenging DPPH radicals.
In the 1,1-diphenyl-2-picrylhydrazyl (DPPH) assay system, the free radical scavenging activity of THP is expressed as IC0.200. The decrease in optical absorbance at 517 nm after addition of THP is monitored following the trapping of the unpaired electron of DPPH. Referring to FIG.4, THP scavenges DPPH in a concentration-dependent manner with IC0.200 of 12.4µmol/L.

[2] = test system: rats subjected to myocardial ischemia; assay: Blood pressure and heart rate in rats subjected to 30 minutes coronary ligation; type: in vivo; conditions: intravenous, 3.5x10^-6 or 3.5x10^-5 g/kg
Description: (§1) Myocardial ischemia was performed by a temporary tightening of the silk ligature around the left main coronary artery. Reperfusion was achieved by releasing the tension applied to the ligature (operated groups). Sham operated animals underwent all surgical procedures, apart from the fact that the silk, passing around the left coronary artery, was not tied (sham groups). Animals were infused with a bolus of THP (3.5x10^-7, 3.5x10^-6, 3.5x10^-5 g/kg), L-NAME (N^∞-nitro-L-arginine methyl ester; 1x10^-3 g/kg) or vehicle (dimethyl sulfoxide/ NaCl 0.9%, 1:10^3; v/v) from a jugular vein 15 minutes before coronary occlusion. The coronary artery was occluded for 30 minutes or 5 minutes followed by 30 minutes reperfusion and with the animals then divided randomly in the following groups: (1) sham + vehicle; (2) sham + THP (3.5x10^-5g/kg); (3) operated + vehicle; (4) operated + THP (3.5x10^-7 g/kg); (5) operated + THP (3.5x10^-6 g/kg); (6) operated + THP (3.5x10^-5 g/kg); (7) operated + L-NAME (1x10^-3 g/kg) + THP (3.5x10^-5 g/kg). Before and during the ischemia or reperfusion period, heart rate (HR), blood pressure (BP) and ECG changes were recorded. Ventricular ectopic activity was evaluated according to the diagnostic criteria advocated in the Lambeth Convention. The incidence and duration of ventricular tachyarrhythmias, including ventricular tachycardia (VT) and ventricular fibrillation (VF), in surviving animals was determined. The Mann-Whitney rank-sum test was used to analyze the differences in the duration of VT and VF between vehicle and drug treated groups. The BP and HR changes between vehicle and drug treated rats in the arrhythmia study were analyzed by ANOVA (analysis of variance) followed by Bonferroni's test. The difference in the percentage incidence of VT, VF and mortality rate was analyzed with a Chi-square test. Table 2 Effect of THP on ischemia-induced arrhythmias in the in vivo anesthetized rat
No significant difference can be seen among vehicle and drug groups (3.5x10^-6 or 3.5x10^-5 g/kg, THP).

[3] = test system: in vivo anesthetized rat; assay: Reperfusion-induced arrhythmias in the anesthetized rat (5 minutes ischemia, 30 minutes reperfusion)
Description: as §1
The severity of reperfusion induced-arrhythmias is critically dependent upon the duration of the preceding period of ischemia. Thus, the protocol of a 5 minutes period of ischemia followed by a 30 minutes period of reperfusion is selected for producing the highest incidence of rhythm disturbance. […] In contrast, animals pretreated with THP (3.5x10^-6 and 3.5x10^-5 g/kg), experienced a drastic reduction in the incidence of VF from 88% to 29% and 13% (p<0.05) and the duration of VF from 92.4±20.5 seconds to 9.2±8.3 and 1.2±1.2 seconds (p<0.05). The mortality rate also decreases from 75% to 0% by 3.5x10^-6 g/kg THP (p<0.05). However, L-NAME coadministration only partially antagonizes the antiarrhythmic activity and mortality prevention effect of thaliporphine (3.5x10^-5 g/kg).

[4] = Superoxide anion scavenging, xanthine/xanthine oxidase system; type: biochemical
[5] = test system: plasma NO; assay: Plasma NO release (NO/ozone chemiluminescence) after ischemia or ischemia-reperfusion; type: in vivo, rats; conditions: for NO (µmol/L) release, Ischemic / NO (µmol/L) release, Reperfused: Operated
Description: as §1
Cellular damage was evaluated by measuring the plasma LDH. Arterial blood samples were drawn from the carotid catheter at the end of ischemia or ischemia-reperfusion, collected in heparinized tubes. The blood was kept at 4°C until it was centrifuged at 2000 xg for 15 minutes. The plasma was recovered and aliquots were used for determination of LDH activity with a commercial kit from Sigma. The deproteinized plasma samples were frozen and kept until analysis. NO was measured by the NO/ozone chemiluminescence technique described in Yanu F. et al., (1997) Clin. Chem. 43:657-662. The difference in plasma NO and LDH were analyzed statistically using unpaired Student's t-test. Table 5 Effects of THP on LDH (U/L) release
Nitric oxide (NO) release is measured by the presence of nitrite (NO2^-) and nitrate (NO3^-) in the plasma from an animal with 30 minutes ischemia or 5 minutes followed by 30 minutes reperfusion. In sham animals, NO is measured to be 9.6±2.3 and 7.6±0.9µmol/L without and with THP pretreatment, respectively. In the operated animals, THP exerts a dramatically increase of plasma NO; at a dose of 3.5x10^-6 g/kg, there are 2- and 3.5-fold increases compared to that of the untreated (vehicle) ischemic or ischemic-reperfused animals, respectively (Table 6).

SMILES: COc1cc2c(cc1OC)-c1c(O)c(OC)cc3c1C(C2)N(C)CC3 (single isomer, unassigned; (+)) [THP, (+)-Thaliporphine]
- IC0.200, scavenging of DPPH [1]: 12.4 µmol/L
- diastolic blood pressure [2]: does not modify
- heart rate (HR) [2]: does not modify
- systolic blood pressure [2]: does not modify
- Mortality (%) ([3]; THP 3.5x10^-5 g/kg i.v.): 0* %
- VF Duration ([3]; THP 3.5x10^-5 g/kg i.v.): 1.2 ± 1.2 s
- VF Incidence(%) ([3]; THP 3.5x10^-5 g/kg i.v.): 13% and 14* %
- VT Duration ([3]; THP 3.5x10^-5 g/kg i.v.): 7.6 ± 3.2 s
- VT Incidence(%) ([3]; THP 3.5x10^-5 g/kg i.v.): 71%
- Mortality (%) ([3]; THP 3.5x10^-6 g/kg i.v.): 0%
- VF Duration ([3]; THP 3.5x10^-6 g/kg i.v.): 9.2 ± 8.3 s
- VF Incidence(%) ([3]; THP 3.5x10^-6 g/kg i.v.): 29%
- VT Duration ([3]; THP 3.5x10^-6 g/kg i.v.): 14.6 ± 9.1 s
- VT Incidence(%) ([3]; THP 3.5x10^-6 g/kg i.v.): 57%
- Mortality (%) ([3]; THP 3.5x10^-7 g/kg i.v.): 43%
- VF Duration ([3]; THP 3.5x10^-7 g/kg i.v.): 75.5 ± 15.6 s
- VF Incidence(%) ([3]; THP 3.5x10^-7 g/kg i.v.): 86%
- VT Duration ([3]; THP 3.5x10^-7 g/kg i.v.): 28.6 ± 10.4 s
- VT Incidence(%) ([3]; THP 3.5x10^-7 g/kg i.v.): 86%
- EC50 [4]: 12.6 µM
- increase of plasma NO compared to untreated (vehicle) ischemic animals ([5]; 3.5x10^-6 g/kg, ischemic): 2 fold
- increase of plasma NO compared to untreated (vehicle) ischemic-reperfused animals ([5]; 3.5x10^-6 g/kg, ischemic-reperfused): 3.5 fold
- NO (µmol/L) release, Ischemic ([5]; THP 3.5x10^-5 g/kg): 19.1 ± 5.5 µmol/L
- NO (µmol/L) release, Reperfused ([5]; THP 3.5x10^-5 g/kg): 30.4 ± 1.9 µmol/L
- NO (µmol/L) release, Ischemic ([5]; THP 3.5x10^-6 g/kg): 19.4 ± 4.7 µmol/L
- NO (µmol/L) release, Reperfused ([5]; THP 3.5x10^-6 g/kg): 28.4 ± 4.3 µmol/L
- NO (µmol/L) release, Ischemic ([5]; THP 3.5x10^-7 g/kg): 6.6 ± 0.6 µmol/L
- NO (µmol/L) release, Reperfused ([5]; THP 3.5x10^-7 g/kg): 8.0 ± 1.7 µmol/L
- NO (µmol/L) release, Non-ischemic ([5]; Sham-operated, THP 3.5x10^-5 g/kg): 7.6 ± 0.9 µmol/L

Reference: patent publication EP1311486B1, “USES OF THALIPORPHINE OR ITS DERIVATIVES IN TREATMENT OF CARDIAC DISEASES AND PREPARATION OF SAME” (Lotus Pharmaceutical Co., Ltd., priority 2000, dated 2002)
